How the values were obtained:
[1] = Solubility of the 10% compounds in silicone base and squalane at room temperature; type: physicochemical; design: key: The compounds which can completely be dissolved in the solvents are indicated as ○; conditions: room temperature (25°C); for SOLUBILITY SILICONE KF56(10%): 10% compound in SILICONE KF56 (10cs); for SOLUBILITY SQUALANE(10%): 10% compound in squalane
Excerpt: Solubilities of the following compounds 1 to 5 as examples of the 1-styryl-3-t-butyl-1,3-propanedione derivative and 2-hydroxy-4-methoxybenzophenone as a comparison are examined using the SILICONE KF56 (10cs; SHINETHU KACAKU INC.) as silicone base and squalane. Compound 1 : 1-styryl-3-t-butyl 1,3-propanedione Compound 2 : 1-p-methoxystyryl-3-t-butyl 1,3-propanedione Compound 3 : 1-p-(2-ethylhexyloxy)styryl-3-t-butyl 1,3-propanedione Compound 4 : 1-p-ethylstyryl-3-t-butyl1,3-propanedione compound 5 : 1-m-methylstyryl-3-t-butyl1,3-propanedione
The compounds which can completely be dissolved in the solvents are indicated as ○.

[2] = Ultraviolet ray absorption, spectrophotometer, 10ppm in ethanol; type: physicochemical; design: key: absorbance of 10 ppm ethanol solution, 10 mm quartz cell; conditions: 10ppm in ethanol (99.5%), quartz cell 10mm×10mm
Protocol: Ultraviolet ray absorptivities of the compound 1,3,5 and comparison (2-hydroxy-4-methoxybenzophenone; UV-A absorbent) were measured according to the following method.
The compound 1,3,5 and the comparison compound were dissolved in ethanol (99.5%) so as to the concentration being 10ppm, and absorption were measured by using quartz cell (10mm×10mm) and the spectrophotometer UVIDEC-610 (JASCO CORPORATION).

| SMILES | SOLUBILITY SILICONE KF56(10%) [1] | SOLUBILITY SQUALANE(10%) [1] | absorption ([2]; WAVELENGTH 300) | absorption ([2]; WAVELENGTH 310) | absorption ([2]; WAVELENGTH 320) | absorption ([2]; WAVELENGTH 330) | absorption ([2]; WAVELENGTH 340) | absorption ([2]; WAVELENGTH 350) | absorption ([2]; WAVELENGTH 360) | absorption ([2]; WAVELENGTH 370) | absorption ([2]; WAVELENGTH 380) |
| --- | --- | --- | --- | --- | --- | --- | --- | --- | --- | --- | --- |
| COc1ccc(C(=O)c2ccccc2)c(O)c1 [COMPARISON 1, 2-hydroxy-4-methoxybenzophenone, reference compound] | DEPOSITION | DEPOSITION | – | – | – | – | – | – | – | – | – |
| CC(C)(C)C(=O)CC(=O)C=Cc1ccccc1 [Compound 1, 1-styryl-3-t-butyl 1,3-propanedione] | ○ | ○ | 0.60 | 0.82 | 1.08 | 1.33 | 1.40 | 1.24 | 0.96 | 0.50 | 0.26 |
| COc1ccc(C=CC(=O)CC(=O)C(C)(C)C)cc1 [Compound 2, 1-p-methoxystyryl-3-t-butyl 1,3-propanedione] | ○ | ○ | – | – | – | – | – | – | – | – | – |
| CCCCC(CC)COc1ccc(C=CC(=O)CC(=O)C(C)(C)C)cc1 (stereo not drawn) [Compound 3, 1-p-(2-ethylhexyloxy)styryl-3-t-butyl 1,3-propanedione] | ○ | ○ | 0.20 | 0.28 | 0.40 | 0.56 | 0.76 | 0.92 | 0.97 | 0.89 | 0.65 |
| CCc1ccc(C=CC(=O)CC(=O)C(C)(C)C)cc1 [Compound 4, 1-p-ethylstyryl-3-t-butyl1,3-propanedione] | ○ | ○ | – | – | – | – | – | – | – | – | – |
| Cc1cccc(C=CC(=O)CC(=O)C(C)(C)C)c1 [Compound 5, 1-m-methylstyryl-3-t-butyl1,3-propanedione] | ○ | ○ | 0.50 | 0.72 | 1.00 | 1.26 | 1.36 | 1.24 | 0.98 | 0.54 | 0.32 |
